Assay results: patent US11242337B2, “Compounds useful for treating gastrointestinal tract disorders” (Ardelyx, Inc., priority 2017, dated 2022)

Assays:
[1] = target: T1, NHE3 (Homo sapiens, UniProt P48764); experiment: Cell-based assay of NHE-3 activity (persistent inhibition), human; conditions: human Persistence, 60 min incubation then washout
T1 construct: expressed in transfected cells
T1 sequence (P48764 26-834): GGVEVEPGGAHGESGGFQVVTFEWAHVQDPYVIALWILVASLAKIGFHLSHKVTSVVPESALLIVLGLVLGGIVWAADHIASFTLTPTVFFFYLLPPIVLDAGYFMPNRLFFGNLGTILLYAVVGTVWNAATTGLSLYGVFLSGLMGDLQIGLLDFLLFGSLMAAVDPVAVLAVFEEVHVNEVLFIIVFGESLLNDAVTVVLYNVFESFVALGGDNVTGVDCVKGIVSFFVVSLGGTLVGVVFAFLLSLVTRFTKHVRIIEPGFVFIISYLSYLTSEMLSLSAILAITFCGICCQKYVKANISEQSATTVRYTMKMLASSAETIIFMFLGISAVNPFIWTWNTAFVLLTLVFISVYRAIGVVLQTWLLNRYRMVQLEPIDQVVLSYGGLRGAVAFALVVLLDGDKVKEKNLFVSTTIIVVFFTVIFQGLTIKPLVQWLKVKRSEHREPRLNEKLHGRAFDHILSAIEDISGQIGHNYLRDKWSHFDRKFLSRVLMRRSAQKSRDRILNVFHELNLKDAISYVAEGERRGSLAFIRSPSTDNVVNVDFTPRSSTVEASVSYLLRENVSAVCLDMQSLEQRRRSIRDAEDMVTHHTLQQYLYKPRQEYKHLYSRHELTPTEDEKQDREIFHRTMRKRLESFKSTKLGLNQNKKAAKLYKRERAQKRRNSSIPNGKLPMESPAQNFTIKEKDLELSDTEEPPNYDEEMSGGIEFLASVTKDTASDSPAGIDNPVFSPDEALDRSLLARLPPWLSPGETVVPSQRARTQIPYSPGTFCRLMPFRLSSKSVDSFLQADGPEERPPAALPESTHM
T1 sequence (Q99653 2-195 partner limits assumed): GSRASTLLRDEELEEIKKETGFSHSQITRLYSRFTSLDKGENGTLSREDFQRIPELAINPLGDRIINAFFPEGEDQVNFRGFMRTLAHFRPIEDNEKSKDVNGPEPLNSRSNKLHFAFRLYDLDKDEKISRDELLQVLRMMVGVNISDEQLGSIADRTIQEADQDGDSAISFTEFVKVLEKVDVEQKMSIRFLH
Summary of the method: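 Persistent inhibition: compound (0-30 μM, 60 min, RT, NaCl-HEPES pH 7.4) removed before assay. Human NHE3/NHERF2 PS120 cells were then BCECF-loaded during NH4Cl pulse (30 min, 37 °C), acidified in Na+-free buffer, and Na+ added 10 min after washout; antiport measured as initial fluorescence-ratio change per minute.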

[2] = target: T1, NHE3; experiment: Cell-based assay of NHE-3 activity (pre-incubation inhibition), human; conditions: human Preincubation
Summary of the method: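 Activity read as initial rate of BCECF fluorescence ratio change per minute (ex 439/505, em 538 nm) following NH4Cl prepulse acid loading. Compound (0–30 μM) present during 10 min Na+-free acidification at room temperature; cells were PS120 fibroblasts stably co-expressing human NHE3 and NHERF2.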

Row | SMILES | % inhibition [1] | pIC50 [1] | % inhibition [2] | pIC50 ([2]; 0-30 μM test compound) | IC50 [1] | IC50 ([2]; 0-30 μM test compound)
1 | Cc1cc(S(=O)(=O)N2CC[C@@H](COc3ccnc(CNC(=O)NCCCCNC(=O)NCc4cc(OC[C@@H]5CCN(S(=O)(=O)c6ccc(O[C@H]7c8cc(Cl)cc(Cl)c8C[C@@H]7N(C)C)c(C)c6)C5)ccn4)c3)C2)ccc1O[C@H]1c2cc(Cl)cc(Cl)c2C[C@@H]1N(C)C [Example 49, 3-[(4-[[(3R)-1-[(4-[[(1S,2S)-4,6-Dichloro-2-(dimethylamino)-2,3-dihydro-1H-inden-1-yl]oxy]-3-methylbenzene)sulfonyl]pyrrolidin-3-yl]methoxy]pyridin-2-yl)methyl]-1-[4-([[(4-[[(3R)-1-[(4-[[(1S,2S)-4,6-dichloro-2-(dimethylamino)-2,3-dihydro-1H-inden-1-yl]oxy]-3-methylbenzene)sulfonyl]pyrrolidin-3-yl]methoxy]pyridin-2-yl)methyl]carbamoyl]amino)butyl]urea] | C (>70%) | C (NHE3 pIC50 > 7) | C (>70%) | B (NHE3 pIC50 6-7) | – | –
2 | Cc1cc(O[C@H]2c3cc(Cl)cc(Cl)c3C[C@@H]2N(C)C)c(F)cc1S(=O)(=O)NCCOCCOCCNC(=O)NCCCCNC(=O)NCCOCCOCCNS(=O)(=O)c1cc(F)c(O[C@H]2c3cc(Cl)cc(Cl)c3C[C@@H]2N(C)C)cc1C [Example 88, 3-[2-(2-[2-[(4-[[(1S,2S)-4,6-Dichloro-2-(dimethylamino)-2,3-dihydro-1H-inden-1-yl]oxy]-5-fluoro-2-methylbenzene)sulfonamido]ethoxy]ethoxy)ethyl]-1-[4-([[2-(2-[2-[(4-[[(1S,2S)-4,6-dichloro-2-(dimethylamino)-2,3-dihydro-1H-inden-1-yl]oxy]-5-fluoro-2-methylbenzene)sulfonamido]ethoxy]ethoxy)ethyl]carbamoyl]amino)butyl]urea] | C (>70%) | C (NHE3 pIC50 > 7) | C (>70%) | C (NHE3 pIC50 > 7) | – | –
3 | O=C(NCCCCNC(=O)NCCOCCN1CC[C@@H](NS(=O)(=O)c2ccc(O[C@H]3c4cc(Cl)cc(Cl)c4C[C@@H]3N3CCNCC3)c(F)c2)C1)NCCOCCN1CC[C@@H](NS(=O)(=O)c2ccc(O[C@H]3c4cc(Cl)cc(Cl)c4C[C@@H]3N3CCNCC3)c(F)c2)C1 [Example 105, 4-([(1S,2S)-4,6-Dichloro-2-(piperazin-1-yl)-2,3-dihydro-1H-inden-1-yl]oxy)-N—[(R)-1-(20-[(R)-3-([4-([(1S2S)-4,6-dichloro-2-(piperazin-1-yl)-2,3-dihydro-1H-inden-1-yl]oxy)-3-fluorophenyl]sulfonamido)pyrrolidin-1-yl]-7,14-dioxo-3,18-dioxa-6,8,13,15-tetraazaicosyl)pyrrolidin-3-yl]-3-fluorobenzenesulfonamide; tetra(trifluoroacetate)] | C (>70%) | – | C (>70%) | – | < 0.1 µM | < 0.1 µM
4 | O=C(NCCCCNC(=O)NCCOCCN1CC[C@H](NS(=O)(=O)c2ccc(O[C@H]3c4cc(Cl)cc(Cl)c4C[C@@H]3N3CCNCC3)c(F)c2)C1)NCCOCCN1CC[C@H](NS(=O)(=O)c2ccc(O[C@H]3c4cc(Cl)cc(Cl)c4C[C@@H]3N3CCNCC3)c(F)c2)C1 [Example 106, 4-([(1S,2S)-4,6-Dichloro-2-(piperazin-1-yl)-2,3-dihydro-1H-inden-1-yl]oxy)-N—[(S)-1-(20-[(S)-3-([4-([(1S,2S)-4,6-dichloro-2-(piperazin-1-yl)-2,3-dihydro-1H-inden-1-yl]oxy)-3-fluorophenyl]sulfonamido)pyrrolidin-1-yl]-7,14-dioxo-3,18-dioxa-6,8,13,15-tetraazaicosyl)pyrrolidin-3-yl]-3-fluorobenzenesulfonamide; tetra(trifluoroacetate)] | C (>70%) | – | C (>70%) | – | – | –
5 | N#Cc1cc(Cl)cc2c1C[C@H](N1CCNCC1)[C@H]2Oc1ccc(S(=O)(=O)N[C@H]2CCN(CCOCCNC(=O)NCCCCNC(=O)NCCOCCN3CC[C@H](NS(=O)(=O)c4ccc(O[C@H]5c6cc(Cl)cc(C#N)c6C[C@@H]5N5CCNCC5)cc4)C3)C2)cc1 [Example 107, 4-([(1S,2S)-6-Chloro-4-cyano-2-(piperazin-1-yl)-2,3-dihydro-1H-inden-1-yl]oxy)-N—[(S)-1-(20-[(S)-3-([4-([(1S,2S)-6-chloro-4-cyano-2-(piperazin-1-yl)-2,3-dihydro-1H-inden-1-yl]oxy)phenyl]sulfonamido)pyrrolidin-1-yl]-7,14-dioxo-3,18-dioxa-6,8,13,15-tetraazaicosyl)pyrrolidin-3-yl]benzenesulfonamide; tetra(trifluoroacetate)] | C (>70%) | C (NHE3 pIC50 > 7) | C (>70%) | C (NHE3 pIC50 > 7) | – | –

The next lines start with the values.

Row | % inhibition [1] | pIC50 [1] | % inhibition [2] | pIC50 ([2]; 0-30 μM test compound) | IC50 [1] | IC50 ([2]; 0-30 μM test compound) | SMILES
6 | C (>70%) | C (NHE3 pIC50 > 7) | C (>70%) | C (NHE3 pIC50 > 7) | – | – | Cc1cc(S(=O)(=O)N[C@H]2CCN(CCOCCNC(=O)NCCCCNC(=O)NCCOCCN3CC[C@H](NS(=O)(=O)c4ccc(O[C@H]5c6cc(Cl)cc(Cl)c6C[C@@H]5N(C)C)c(C)c4)C3)C2)ccc1O[C@H]1c2cc(Cl)cc(Cl)c2C[C@@H]1N(C)C [Example 52, 3-(2-[2-[(3S)-3-[(4-[[(1S,2S)-4,6-Dichloro-2-(dimethylamino)-2,3-dihydro-1H-inden-1-yl]oxy]-3-methylbenzene)sulfonamido]pyrrolidin-1-yl]ethoxy]ethyl)-1-(4-[[(2-[2-[(3S)-3-[(4-[[(1S,2S)-4,6-dichloro-2-(dimethylamino)-2,3-dihydro-1H-inden-1-yl]oxy]-3-methylbenzene)sulfonamido]pyrrolidin-1-yl]ethoxy]ethyl)carbamoyl]amino]butyl)urea]
7 | C (>70%) | C (NHE3 pIC50 > 7) | C (>70%) | C (NHE3 pIC50 > 7) | – | – | Cc1cc(S(=O)(=O)N[C@@H]2CCN(CCOCCNC(=O)NCCCCNC(=O)NCCOCCN3CC[C@@H](NS(=O)(=O)c4ccc(O[C@H]5c6cc(Cl)cc(Cl)c6C[C@@H]5N(C)C)c(C)c4)C3)C2)ccc1O[C@H]1c2cc(Cl)cc(Cl)c2C[C@@H]1N(C)C [Example 53, 3-(2-[2-[(3R)-3-[(4-[[(1S,2S)-4,6-Dichloro-2-(dimethylamino)-2,3-dihydro-1H-inden-1-yl]oxy]-3-methylbenzene)sulfonamido]pyrrolidin-1 yl]ethoxy]ethyl)-1-(4-[[(2-[2-[(3R)-3-[(4-[[(1S,2S)-4,6-dichloro-2-(dimethylamino)-2,3-dihydro-1H-inden-1-yl]oxy]-3-methylbenzene)sulfonamido]pyrrolidin-1-yl]ethoxy]ethyl)carbamoyl]amino]butyl)urea]
8 | C (>70%) | – | C (>70%) | – | – | – | Cc1cc(S(=O)(=O)N[C@@H]2CCN(CCOCCNC(=O)NCCCCNC(=O)NCCOCCN3CC[C@@H](NS(=O)(=O)c4ccc(O[C@H]5c6cc(Cl)cc(C#N)c6C[C@@H]5N(C)C)c(C)c4)C3)C2)ccc1O[C@H]1c2cc(Cl)cc(C#N)c2C[C@@H]1N(C)C [Example 55, 3-(2-[2-[(3R)-3-[(4-[[(1S,2S)-6-Chloro-4-cyano-2-(dimethylamino)-2,3-dihydro-1H-inden-1-yl]oxy]-3-methylbenzene)sulfonamido]pyrrolidin-1-yl]ethoxy]ethyl)-1-(4-[[(2-[2-[(3R)-3-[(4-[[(1S,2S)-6-chloro-4-cyano-2-(dimethylamino)-2,3-dihydro-1H-inden-1-yl]oxy]-3-methylbenzene)sulfonamido]pyrrolidin-1-yl]ethoxy]ethyl)carbamoyl]amino]butyl)urea]
9 | C (>70%) | C (NHE3 pIC50 > 7) | C (>70%) | C (NHE3 pIC50 > 7) | – | – | Cc1cc(S(=O)(=O)N[C@H]2CCN(CCOCCNC(=O)NCCCCNC(=O)NCCOCCN3CC[C@H](NS(=O)(=O)c4ccc(O[C@H]5c6cc(Cl)cc(Cl)c6C[C@@H]5N(C)C)c(C)c4)C3=O)C2=O)ccc1O[C@H]1c2cc(Cl)cc(Cl)c2C[C@@H]1N(C)C [Example 91, 1-(2-[2-[(3S)-3-[(4-[[(1S,2S)-4,6-Dichloro-2-(dimethylamino)-2,3-dihydro-1H-inden-1-yl]oxy]-3-methylbenzene)sulfonamido]-2-oxopyrrolidin-1-yl]ethoxy]ethyl)-3-(4-[[(2-[2-[(3S)-3-[(4-[[(1S,2S)-4,6-dichloro-2-(dimethylamino)-2,3-dihydro-1H-inden-1-yl]oxy]-3-methylbenzene)sulfonamido]-2-oxopyrrolidin-1-yl]ethoxy]ethyl)carbamoyl]amino]butyl)urea]
